The GI50 is the concentration giving 50% growth inhibition. By TGI is commonly meant the concentration giving total growth inhibition. The low end stands for more potent growth arrest, the high end for less potent growth arrest.

Test systems include SN12C renal; K-562 leukemia; MDA-MB-435; HOP-62 NSCLC; RXF 393 renal; U251 CNS; SR leukemia; UACC-62 melanoma; 786-0 renal; SF-295 CNS.
Assay in all cases: DTP human tumour cell line panel, 48 h

Structures are written as SMILES. Several values for one entry are separate records, joined by “and”; a condition that tells them apart may be missing. Equal entries are not always repeated.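 96-well plates; 48 h exposure; 5 concentrations. Endpoints by linear interpolation between flanking doses. Not reached: highest tested concentration assigned. The concentration for 50% growth inhibition is given as GI50. TGI: concentration producing complete growth inhibition.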

Regarding `OCc1ccc(N(Cc2ccc(F)cc2)C2CCC2)cc1Cl`, the GI50 with SN12C renal was 11800 nM; in the test with K-562 leukemia it was 1010 nM; with MDA-MB-435 it was 16.2 µM; in the test on HOP-62 NSCLC, 2050 nM; with RXF 393 renal, 3.57 µM; with U251 CNS it was 1020 nM. Further, the GI50 in the test on SR leukemia was 15300 nM; in the test with UACC-62 melanoma, 124 nM; in the test on 786-0 renal, 10.3 µM; in the test with SF-295 CNS, 437 nM. The TGI in the test with SN12C renal stood at 24.4 µM; in the test with K-562 leukemia it was 15 µM; in the test on MDA-MB-435, 31.1 µM; in the test with HOP-62 NSCLC, 17.5 µM; with RXF 393 renal, 16.6 µM; in the test with U251 CNS it was 16.2 µM. For the same compound, the TGI is 35 µM in the test with SR leukemia, 0.846 µM in the test with UACC-62 melanoma, 24.3 µM with 786-0 renal and 12.9 µM with SF-295 CNS.
For the compound `O=C(Nc1cccc(NS(=O)(=O)c2ccc(F)cc2)c1)c1ccc(-c2ccccc2)cc1`, the GI50 was 2960 nM in the test with SN12C renal; 2910 nM with K-562 leukemia; 3.26 µM in the test on MDA-MB-435; 4660 nM in the test on HOP-62 NSCLC; 3.65 µM in the test with RXF 393 renal; 3920 nM in the test on U251 CNS. The GI50 with SR leukemia was 2510 nM; with UACC-62 melanoma, 1630 nM; in the test on 786-0 renal, 3.69 µM; in the test with SF-295 CNS, 2340 nM. The TGI with SN12C renal is 11.8 µM; with K-562 leukemia, 24.7 µM; in the test with MDA-MB-435, 13.7 µM; in the test with HOP-62 NSCLC it was 37.2 µM; in the test on RXF 393 renal, 20.7 µM; in the test on U251 CNS it was 19.2 µM. In addition, the TGI in the test on SR leukemia was 10.1 µM; in the test on UACC-62 melanoma, 6.68 µM; in the test with 786-0 renal, above 100 µM; with SF-295 CNS it was 11.8 µM.
For `O=C(Oc1cccc(Nc2ncnc3ccccc23)c1)c1ccccc1Cl`, the GI50 was 15500 nM in the test with SN12C renal; 43100 nM with K-562 leukemia; 41.6 µM with MDA-MB-435; 25600 nM with HOP-62 NSCLC; 24.8 µM in the test with RXF 393 renal; 25400 nM in the test with U251 CNS. In addition, the GI50 is 65700 nM in the test with SR leukemia, 22500 nM in the test on UACC-62 melanoma, 20.8 µM in the test with 786-0 renal and 20000 nM in the test on SF-295 CNS. Besides, the TGI with SN12C renal is 49.6 µM; in the test with K-562 leukemia, above 100 µM; in the test on MDA-MB-435, above 100 µM; in the test with HOP-62 NSCLC, 83.9 µM; in the test on RXF 393 renal it was 70.6 µM; in the test on U251 CNS, 63.5 µM. The TGI in the test on SR leukemia is above 100 µM; in the test with UACC-62 melanoma it was 80.6 µM; with 786-0 renal it was 71.9 µM; with SF-295 CNS, 47.5 µM.
Regarding `Cc1ccc2c(/C=C/C(=O)c3cc(CN4CCOCC4)c(O)c4nc(C)ccc34)cc(CN3CCOCC3)c(O)c2n1`, the GI50 is 683 nM in the test with SN12C renal; 355 nM with K-562 leukemia; 0.669 µM in the test with MDA-MB-435; 739 nM in the test with HOP-62 NSCLC; 0.851 µM with RXF 393 renal; 412 nM in the test on U251 CNS. For the same compound, the GI50 is 318 nM in the test with SR leukemia, 432 nM in the test on UACC-62 melanoma, 1.4 µM with 786-0 renal and 765 nM in the test on SF-295 CNS. Further, the TGI in the test with SN12C renal amounted to 12.4 µM; in the test on K-562 leukemia it was 17.1 µM; in the test on MDA-MB-435, 2.3 µM; with HOP-62 NSCLC it was 11.8 µM; in the test on RXF 393 renal, 2.27 µM; with U251 CNS, 2.58 µM. For the same compound, the TGI in the test on SR leukemia was found to be 11.9 µM; with UACC-62 melanoma it was 7.48 µM; in the test on 786-0 renal it was 5.45 µM; in the test with SF-295 CNS, 10.3 µM.
As for `CCNCCNc1cc(-c2ccc(Cl)cc2)c(C#N)c2nc3ccccc3n12`, the GI50 with SN12C renal is 1890 nM; with K-562 leukemia it was 1290 nM; in the test on MDA-MB-435 it was 1.58 µM; in the test with HOP-62 NSCLC, 2370 nM; in the test with RXF 393 renal, 1.44 µM; in the test on U251 CNS, 1700 nM. Moreover, the GI50 in the test with SR leukemia is 282 nM; in the test with UACC-62 melanoma, 1850 nM; with 786-0 renal, 1.49 µM; with SF-295 CNS, 1720 nM. Besides, the TGI was determined as 3.85 µM in the test with SN12C renal; 3.06 µM with K-562 leukemia; 2.95 µM in the test on MDA-MB-435; 5.4 µM in the test with HOP-62 NSCLC; 2.78 µM in the test with RXF 393 renal; 3.27 µM in the test on U251 CNS. The TGI in the test on SR leukemia amounted to 0.69 µM; with UACC-62 melanoma, 3.65 µM; with 786-0 renal it was 2.87 µM; in the test on SF-295 CNS, 3.31 µM.
On to `CC1/C=C/C=C/CC/C=C/C=C/C=C/C=C/C(OC2OC(C)C(O)C(N)C2O)CC2OC(CC(O)C(O)CCC(O)CC(O)CC(O)CC(=O)OC(C)C(C)C1O)CC(O)C2C(=O)O` (centres undefined), for which the GI50 in the test on SN12C renal was 23.4 µg/mL; with K-562 leukemia, 74.9 µg/mL; in the test with MDA-MB-435 it was 28.1 µg/mL; in the test with HOP-62 NSCLC it was 25.4 µg/mL; in the test on RXF 393 renal, 19.5 µg/mL; with U251 CNS, 69.1 µg/mL. Moreover, the GI50 is 28.8 µg/mL with UACC-62 melanoma, 25.8 µg/mL with 786-0 renal and 46.2 µg/mL in the test with SF-295 CNS. The total growth inhibition concentration (TGI) with SN12C renal was 30.3 µM and 43.8 µg/mL; in the test with K-562 leukemia, > 100 µM and 150 µg/mL; with MDA-MB-435, 31.9 µM and 50.1 µg/mL; in the test on HOP-62 NSCLC, 35.8 µM and 55.3 µg/mL; with RXF 393 renal, 27.3 µM and 40.5 µg/mL; in the test on U251 CNS, 32.4 µM and 150 µg/mL. For the same compound, the TGI with SR leukemia is 35.5 µM; in the test with UACC-62 melanoma it was 38 µM and 55.8 µg/mL; in the test with 786-0 renal, 31.3 µM and 50.1 µg/mL; with SF-295 CNS it was 45.7 µM and 108 µg/mL.
Take `O=c1oc2ccccc2cc1-c1ccc([N+](=O)[O-])cc1`: the TGI was above 100 µM in the test with SN12C renal; above 100 µM in the test with K-562 leukemia; above 100 µM in the test on MDA-MB-435; above 100 µM with HOP-62 NSCLC; above 100 µM in the test with RXF 393 renal; above 51.9 µM with U251 CNS. Also, the TGI in the test on SR leukemia, with UACC-62 melanoma, in the test on 786-0 renal and with SF-295 CNS was above 100 µM in each case.
In the case of `C=C1C(=O)OC2C1C(OC(=O)/C(C)=C/C)CC(O)(CCl)C1C(OC(C)=O)C=C(C)C21O` (centres undefined), the TGI with SN12C renal is 40.4 µM; in the test with K-562 leukemia, above 37.4 µM; with MDA-MB-435 it was above 51.2 µM; with HOP-62 NSCLC, above 66 µM; with RXF 393 renal it was 25 µM; in the test with U251 CNS, 41.2 µM. For the same compound, the TGI with SR leukemia was 26.1 µM; in the test with UACC-62 melanoma, 29.3 µM; in the test on 786-0 renal, 32.9 µM; with SF-295 CNS it was above 100 µM.
